{
  "source": "patent US7147837B2",
  "about": "“Bioactivated diagnostic imaging constrast agents” (Epix Pharmaceuticals, Inc., priority 1996, dated 2006)",
  "key": {"[1]": {"system": "alkaline phosphatase", "test": "T1-weighted MRI scan at 1.0 Tesla of 4.5% HSA solutions with or without alkaline phosphatase", "assay_type": "biochemical", "protocol": "Solutions of 4.5% HSA containing compounds 1 and 8 (0.1–0.2 mM) were prepared. After 15 minutes, an initial T1-weighted MRI scan (FISP-3D, TR=60, TE=5, alpha=60) at 1.0 Tesla of the 4.5% HSA solutions was obtained. […] Three units of alkaline phosphatase were added to half of the HSA solutions containing 1 and additional T1-weighted MRI scans were obtained. After 130 minutes, the solutions that contained 1 and alkaline phosphatase obtained 96% of the signal intensity that for the solutions that contain 8 at equivalent concentrations. […] A 20% increase in signal intensity was observed after addition of alkaline phosphatase to solutions containing 1."}, "[2]": {"biological_target": "T1, human serum albumin (HSA) (Homo sapiens, UniProt P02768)", "T1 sequence (P02768 25-609)": "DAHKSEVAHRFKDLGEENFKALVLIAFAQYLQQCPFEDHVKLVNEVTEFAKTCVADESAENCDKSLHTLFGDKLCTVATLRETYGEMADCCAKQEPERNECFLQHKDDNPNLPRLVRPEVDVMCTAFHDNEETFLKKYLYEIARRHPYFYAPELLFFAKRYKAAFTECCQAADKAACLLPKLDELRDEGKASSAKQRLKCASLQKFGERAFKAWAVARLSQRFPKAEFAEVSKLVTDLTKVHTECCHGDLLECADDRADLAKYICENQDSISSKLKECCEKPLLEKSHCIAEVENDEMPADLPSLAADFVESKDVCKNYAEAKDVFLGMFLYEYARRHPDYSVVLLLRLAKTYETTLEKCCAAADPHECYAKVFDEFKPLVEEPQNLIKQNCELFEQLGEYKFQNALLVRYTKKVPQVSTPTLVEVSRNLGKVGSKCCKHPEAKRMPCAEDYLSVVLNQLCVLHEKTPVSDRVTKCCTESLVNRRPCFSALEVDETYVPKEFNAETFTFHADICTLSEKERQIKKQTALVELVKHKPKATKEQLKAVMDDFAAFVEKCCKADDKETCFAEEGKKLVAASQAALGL", "test": "Longitudinal relaxivity (R1) in PBS containing 4.5% HSA", "assay_type": "physicochemical", "conditions": "for Relaxivity in 4.5% HSA: longitudinal relaxivity R1, 20 MHz, 37° C., PBS pH 7.4 with 4.5% HSA, unit from R1 definition, not in table", "description": "The magnetic resonance phenomena is complex, and different paramagnetic materials alter the MRI signal to various degrees. See R. B. Lauffer, Chemical Reviews (1987), 87, pp. 901–927. A quantitative measurement of the ability of a contrast agent to relax water protons, and consequently affect the MRI image, is provided by its relaxivity. Relaxivity is the dependence of water proton signal intensity upon the concentration of paramagnetic metal ion in solution. Relaxivity is defined as the induced T1 or T2 relaxation per unit time (R1 or R2 in units of mM^−1 sec^−1) observed for a contrast agent, where the concentration of the agent is expressed in a millimolar (mM).\nThe degree to which an agent has been tuned for maximum relaxivity can be assessed by measuring the relaxivity-bound (R1-bound) in the presence of HSA. This requires measuring the relaxivity of the free chelate (R1-free) as well as the relaxivity (R1-observed) and percent binding of the agent in 4.5% HSA. The R1-observed is a mole fraction weighted average of R1-free and R1-bound: R1-observed=(fraction-free*R1-free)+(fraction-bound*R1-bound) Thus:\n(§1) In Table V, the longitudinal relaxivities (R1) were obtained at 20 MHz and 37° C. by determining the concentration dependent relaxation rate (1/T1) of water protons in phosphate buffered saline (PBS, 150 mM NaCl, 10 mM phosphate, pH=7.4) or in PBS solutions containing 4.5% human serum albumin (HSA). The percent bound to HSA was determined by ultrafiltration of a 0.1 mM chelate, 4.5% HSA solution."}, "[3]": {"biological_target": "T1, human serum albumin (HSA)", "test": "Percent bound to HSA by ultrafiltration", "assay_type": "binding", "conditions": "for Percent Binding in 4.5% HSA: ultrafiltration, 0.1 mM chelate", "protocol": "Protein binding of contrast agents can be assessed in vitro by equilibrium dialysis or ultrafiltration using a physiologically relevant protein concentration in buffer. See, G. N. Rolinson and R. Sutherland, British J. Pharmac. Chemother. (1965), 25, p. 638 (ultrafiltration); D. Glick, Methods Biochem. Anal. (1956), 3 p. 265 (equilibrium dialysis). The protein binding measurements set forth in this application are determined by ultrafiltration using 4.5% (w/w) human serum albumin in phosphate buffered saline (0.15 NaCl, 10 mM phosphate, pH 7.4). Preferably at least 10%, and more preferably at least 50%, and even more preferably at least 80%, and most preferably at least 95%, of an activated protein-binding contrast agent will be bound to the protein under physiologically relevant conditions. In this application, the measurement of percent binding of the contrast agent to HSA has an error of approximately +/−5%. Protein binding to other proteins or to serum can be assessed in a similar fashion.\nas §1"}, "[4]": {"conditions": "cited from earlier work"}, "[5]": {"biological_target": "T2, HSA (Homo sapiens, UniProt P02768)", "T2 sequence (P02768 25-609)": "as above", "conditions": "cited from earlier work"}, "[6]": {"biological_target": "T2, HSA", "conditions": "cited from earlier work", "remark": "listed apart in the source"}, "[7]": {"system": "alkaline phosphatase", "test": "Bioactivation of prodrug by alkaline phosphatase in 4.5% HSA, 1/T1 monitored over time", "assay_type": "biochemical", "conditions": "for 1/T1: 4.5% HSA, three units alkaline phosphatase, 20 MHz", "protocol": "A solution of prodrug 1 (0.3 mM) was prepared in PBS buffer (pH 7) containing 4.5% HSA. […] Three units of alkaline phosphatase (1 unit converts […] of p-nitrophenylphosphate to p-nitrophenol per minute in phosphate buffered saline at 0.1 mM substrate) were added to the 4.5% HSA solution of compound 1 and the 1/T1 was monitored over time."}, "[8]": {"biological_target": "T2, HSA", "conditions": "cited from earlier work", "remark": "listed apart in the source"}, "[9]": {"system": "alpha 1-acid glycoprotein (AAG)", "conditions": "binding to AAG; cited from earlier work"}},
  "note": "Read-outs that look alike come from different tables or passages of the source.",
  "data": [
    {"smiles": "O=C(O)CN(CCN(CC(=O)O)CC(COc1ccc(-c2ccc(O)cc2)cc1)N(CC(=O)O)CC(=O)O)CC(=O)O", "note": "(centres unmarked) [Compound 8]", "values": [
      {"measurement": "brightness of T1-weighted MRI scan", "setting": "[1]; 0.1–0.2 mM in 4.5% HSA, 1.0 Tesla, equivalent concentrations, no enzyme", "result": "brighter than the solutions containing 1"},
      {"measurement": "relaxivity compared with prodrug", "setting": "[2]; bound to HSA, 0.1 mM", "result": "higher relaxivity"},
      {"measurement": "Relaxivity in 4.5% HSA", "setting": "[2]", "result": "26.4 ± 0.4", "unit": "mM⁻¹ s⁻¹"},
      {"measurement": "HSA binding affinity compared with prodrug", "setting": "[3]; concentration of 0.1 mM", "result": "greater affinity than prodrug 1"},
      {"measurement": "Percent Binding in 4.5% HSA", "setting": "[3]", "result": "63 ± 2", "unit": "%"}
    ]},
    {"smiles": "CC1(C)C(/C=C/C=C/C=C/C=C2\\N(CCCCS(=O)(=O)O)c3ccc4ccccc4c3C2(C)C)=[N+](CCCCS(=O)(=O)[O-])c2ccc3ccccc3c21", "note": "[indocyanine green]", "values": [
      {"measurement": "maximal absorbance", "setting": "[4]; before binding to proteins", "result": "770–780 nm"},
      {"measurement": "maximal absorbance", "setting": "[4]; upon binding to proteins in plasma or blood", "result": "790–805 nm"}
    ]},
    {"smiles": "CCn1cc(C(=O)O)c(=O)c2cc(F)c(N3CCNCC3)nc21", "note": "[enoxacin]", "values": [
      {"measurement": "fraction bound to HSA (fb)", "setting": "[5]", "result": 0.35}
    ]},
    {"smiles": "C[C@H](CCC(=O)O)[C@H]1CC[C@H]2[C@@H]3[C@H](O)C[C@@H]4C[C@H](O)CC[C@]4(C)[C@H]3CC[C@]12C", "note": "[chenodeoxycholic acid]", "values": [
      {"measurement": "binding constant", "setting": "[6]", "result": "5.5×10^4"}
    ]},
    {"smiles": "CCn1cc(C(=O)O)c(=O)c2cc(F)c(N3CCNC(C)C3)c(F)c21", "note": "(centres unmarked) [NY-198]", "values": [
      {"measurement": "fraction bound to HSA (fb)", "setting": "[5]", "result": 0.28}
    ]},
    {"smiles": "CCn1cc(C(=O)O)c(=O)c2ccc(C)nc21", "note": "[nalidixic acid]", "values": [
      {"measurement": "fraction bound to HSA (fb)", "setting": "[5]", "result": 0.71}
    ]},
    {"smiles": "COn1cc(C(=O)O)c(=O)c2cc3c(cc21)OCO3", "note": "[miloxacin]", "values": [
      {"measurement": "fraction bound to HSA (fb)", "setting": "[5]", "result": 0.86}
    ]},
    {"smiles": "O=C(O)CN(CCN(CC(=O)O)CC(COc1ccc(-c2ccc(OP(=O)(O)O)cc2)cc1)N(CC(=O)O)CC(=O)O)CC(=O)O", "note": "(centres unmarked) (Gd complex, metal not drawn) [Compound 1]", "values": [
      {"measurement": "MRI image without alkaline phosphatase", "setting": "[1]; 4.5% HSA, no alkaline phosphatase, during the MRI scans", "result": "remained as constant dark images"},
      {"measurement": "increase in signal intensity", "setting": "[1]; after addition of alkaline phosphatase", "result": 20, "unit": "%"},
      {"measurement": "signal intensity relative to solutions containing 8", "setting": "[1]; with three units alkaline phosphatase, after 130 minutes, equivalent concentrations", "result": 96, "unit": "%"},
      {"measurement": "change in 20 MHz proton relaxation rate 1/T1 with time", "setting": "[7]; 0.3 mM in PBS (pH 7) with 4.5% HSA, before addition of alkaline phosphatase", "result": "No change"},
      {"measurement": "1/T1", "setting": "[7]; 0.3 mM prodrug in PBS (pH 7), time 0 min", "result": 4.440, "unit": "s⁻¹"},
      {"measurement": "1/T1", "setting": "[7]; 0.3 mM, time 1 min", "result": 4.348, "unit": "s⁻¹"},
      {"measurement": "1/T1", "setting": "[7]; 0.3 mM, time 2 min", "result": 4.651, "unit": "s⁻¹"},
      {"measurement": "1/T1", "setting": "[7]; 0.3 mM, time 4 min", "result": 4.878, "unit": "s⁻¹"},
      {"measurement": "1/T1", "setting": "[7]; 0.3 mM, time 6 min", "result": 5.025, "unit": "s⁻¹"},
      {"measurement": "1/T1", "setting": "[7]; 0.3 mM, time 14 min", "result": 5.376, "unit": "s⁻¹"},
      {"measurement": "1/T1", "setting": "[7]; 0.3 mM, time 48 min", "result": 6.250, "unit": "s⁻¹"},
      {"measurement": "1/T1", "setting": "[7]; 0.3 mM, time 90 min", "result": 6.849, "unit": "s⁻¹"},
      {"measurement": "1/T1", "setting": "[7]; 0.3 mM, time 110 min", "result": 7.042, "unit": "s⁻¹"},
      {"measurement": "1/T1", "setting": "[7]; 0.3 mM, time 137 min", "result": 7.299, "unit": "s⁻¹"},
      {"measurement": "approximate expected increase in signal intensity", "setting": "[7]; corresponding to the change in 1/T1 upon complete activation", "result": "~24", "unit": "%"},
      {"measurement": "change in 1/T1 from time zero", "setting": "[7]; upon completion of enzymatic activation of 1 to 8", "result": 2.86, "unit": "s⁻¹"},
      {"measurement": "Relaxivity in 4.5% HSA", "setting": "[2]", "result": "15.9 ± 0.2", "unit": "mM⁻¹ s⁻¹"},
      {"measurement": "Percent Binding in 4.5% HSA", "setting": "[3]", "result": "47 ± 1", "unit": "%"}
    ]},
    {"smiles": "O=C(CCCCC(=O)Nc1c(I)cc(I)c(C(=O)O)c1I)Nc1c(I)cc(I)c(C(=O)O)c1I", "note": "[iodipamide]", "values": [
      {"measurement": "binding to HSA", "setting": "[8]", "result": "> 98", "unit": "%"}
    ]},
    {"smiles": "CN(C)CCCN1c2ccccc2Sc2ccc(Cl)cc21", "note": "[chlorpromazine]", "values": [
      {"measurement": "Ka", "setting": "[9]", "result": "35.4×10^5"}
    ]}
  ]
}
